# Like-named read-outs stand apart in the source and are kept apart here.
# Assays:
# Format in all cases: cell-based
# PC3 = assay: in vitro antiproliferation assay, PC3 (prostate)
# Protocol: (§1) The IC50 values of various compounds against a various different tumor cell lines were determined using standard in vitro antiproliferation assays. The tumor cell lines tested were as follows: A549 (lung); H1299 (lung), ACHN (kidney/p53 wt), CAKI (renal cell carcinoma), NCI-H460 (lung); HCT116 (colon/p53w0; HELA (cervix/p53 wt), HUH7 (liver/p53 wt), HUVEC (primary endothelial), LNCAP (prostate), HT-29 (colon); MCF-7 (breast); MCF-7 (breast/ER positive), MDA MB435S (breast); MDA MB231 (breast/ER negative), DU145 (prostate); BxPC-3 (pancreatic); SKOV-3 (ovarian); HepG2 (hepatic), NDHF primary normal human dermal fibroblast), SKMEL28 (breast/p53mut), SKMEL5 (breast/p53 wt), U20S (bone) and PC3 (prostate). […] A blank indicates the specified compound was not tested against the specified cell line.
# (§2) Many of the compounds were tested against other cell lines. Their activity is reported in TABLE 15, below, where +”, “−”, “−/+” or “+/−” values are as described for TABLES 1-14. Where the cell line includes a value in a parenthetical, the value indicates the seeding density at which the assay was performed
# A549 cells = assay: in vitro antiproliferation assay, A549 (lung)
# Method in brief: (§3)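 Standard in vitro antiproliferation assays on tumour cell lines, including A549 and H1299 (both lung); IC50 values determined.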
# HCT116 = assay: in vitro antiproliferation assay, HCT116 (colon)
# Protocol: as §1, §2
# H1299 cells = assay: in vitro antiproliferation assay, H1299 (lung)
# Method in brief: as §3
# [1] = in vitro antiproliferation, A549 (lung) cells, Table 4, compounds with no designated stereochemistry tested as racemate
# [2] = IC50 class against A549 (lung) tumor cells
# [3] = HCT116 (colon), read-out: HCT116
# [4] = IC50 class against H1299 (lung) tumor cells
# [5] = Table 5, in vitro antiproliferation, A549 (lung) cells
# [6] = Table 5, in vitro antiproliferation, H1299 (lung) cells
# [7] = Table 7, in vitro antiproliferation, A549 (lung) cells
# [8] = Table 7, in vitro antiproliferation, colon cells, read-out: HTC116
# [9] = Table 7, in vitro antiproliferation, H1299 (lung) cells
# [10] = A549 (lung) cells, in vitro antiproliferation
# [11] = H1299 (lung) cells, in vitro antiproliferation
# [12] = A549 (lung) cells, antiproliferation
compound,measurement,setting,value
CNC(=O)COc1cccc(Nc2ncc(F)c(Nc3ccc4c(c3)NC(=O)C(C)O4)n2)c1 (racemic) [compound 256],IC50,PC3,≤ 20 µM
same,IC50,A549 cells; [1],≤ 20 µM
COC(=O)N1CCN(c2ccc(Nc3ncc(F)c(NC4CC4)n3)cc2)CC1 [compound 104],IC50,A549 cells; [2],≤ 20 µM
same,IC50,HCT116; [3],> 20 µM
same,IC50,H1299 cells; [4],≤ 20 µM
O=C(COc1cccc(Nc2ncc(F)c(NC3CCC3)n2)c1)NC1CC1 [compound 110],IC50,A549 cells; [2],≤ 20 µM
same,IC50,HCT116; [3],≤ 20 µM
same,IC50,H1299 cells; [4],≤ 20 µM
Fc1cnc(Nc2ccc(Cl)c(Cl)c2)nc1NC1CCC1 [compound 111],IC50,A549 cells; [2],≤ 20 µM
same,IC50,HCT116; [3],≤ 20 µM
same,IC50,H1299 cells; [4],≤ 20 µM
COc1ccc(Nc2ncc(F)c(NC3CCC3)n2)cc1Cl [compound 112],IC50,A549 cells; [2],≤ 20 µM
same,IC50,HCT116; [3],≤ 20 µM
same,IC50,H1299 cells; [4],≤ 20 µM
O=C1COc2ccc(Nc3nc(Nc4cccc(O)c4)ncc3F)cc2N1 [compound 254],IC50,PC3,≤ 20 µM
same,IC50,A549 cells; [1],≤ 20 µM
Cc1c(Cl)cc(Nc2ncc(F)c(Nc3ccc4c(c3)NC(=O)C(C)(C)O4)n2)cc1Cl [compound 306],IC50,A549 cells; [1],≤ 20 µM
same,IC50,HCT116; [3],> 20 µM
same,IC50,"H1299 cells; in vitro antiproliferation, H1299 (lung) cells, Table 4, compounds with no designated stereochemistry tested as racemate",≤ 20 µM
CNC(=O)COc1cccc(Nc2ncc(F)c(Nc3ccc4c(n3)NC(=O)CO4)n2)c1 [compound 418],IC50,PC3,≤ 20 µM
O=C(COc1cccc(Nc2ncc(F)c(Nc3ccc4c(c3)OCCO4)n2)c1)N1CCOCC1 [compound 493],IC50,A549 cells; [5],< 20 µM
same,IC50,HCT116; [3],< 20 µM
same,IC50,H1299 cells; [6],≤ 20 µM
Fc1cnc(Nc2cccc(OCCN3CCOCC3)c2)nc1Nc1ccc2c(c1)OCCO2 [compound 494],IC50,A549 cells; [5],≤ 20 µM
same,IC50,HCT116; [3],≤ 20 µM
same,IC50,H1299 cells; [6],≤ 20 µM
CNC(=O)COc1cccc(Nc2ncc(F)c(Nc3ccc4c(c3)OCCO4)n2)c1 [compound 495],IC50,A549 cells; [5],< 20 µM
same,IC50,HCT116; [3],≤ 20 µM
same,IC50,H1299 cells; [6],≤ 20 µM
Fc1cnc(Nc2cccc(OCCN3CCOCC3)c2)nc1Nc1ccc2c(c1)OCCO2 [compound 500],IC50,PC3,> 20 µM
CNC(=O)COc1ccc(Nc2ncc(F)c(Nc3ccc4c(c3)OCCO4)n2)cc1 [compound 501],IC50,PC3,> 20 µM
same,IC50,A549 cells; [5],> 20 µM
Fc1cnc(Nc2ccc(OCCN3CCOCC3)cc2)nc1Nc1ccc2c(c1)OCCO2 [compound 502],IC50,PC3,> 20 µM
same,IC50,A549 cells; [5],> 20 µM
O=C(COc1cccc(Nc2ncc(F)c(Nc3ccc4c(c3)OCCO4)n2)c1)NC1CCCCC1 [compound 508],IC50,PC3,> 20 µM
same,IC50,A549 cells; [5],> 20 µM
CN(CCO)C(=O)COc1cccc(Nc2ncc(F)c(Nc3ccc4c(c3)OCCO4)n2)c1 [compound 509],IC50,PC3,> 20 µM
same,IC50,A549 cells; [5],> 20 µM
CN(C)CCOc1cccc(Nc2ncc(F)c(Nc3ccc4c(c3)OCCO4)n2)c1 [compound 510],IC50,PC3,> 20 µM
same,IC50,A549 cells; [5],> 20 µM
CC(C)c1ccc(Nc2ncc(F)c(Nc3ccc4c(c3)OCCO4)n2)cc1 [compound 511],IC50,PC3,≤ 20 µM
same,IC50,A549 cells; [5],> 20 µM
CNC(=O)COc1cccc(Nc2ncc(F)c(Nc3ccc4c(c3)OCCO4)n2)c1 [compound 516],IC50,PC3,≤ 20 µM
OCc1cc(CO)cc(Nc2ncc(F)c(Nc3ccc4c(c3)OCCO4)n2)c1 [compound 529],IC50,A549 cells; [5],≤ 20 µM
same,IC50,HCT116; [3],≤ 20 µM
same,IC50,H1299 cells; [6],≤ 20 µM
OCc1cc(CO)cc(Nc2ncc(F)c(Nc3ccc4c(c3)OC(F)(F)C(F)(F)O4)n2)c1 [compound 534],IC50,HCT116; [3],≤ 20 µM
same,IC50,H1299 cells; [6],≤ 20 µM
COC(=O)COc1cccc(Nc2ncc(F)c(Nc3ccc4c(c3)OCCCO4)n2)c1 [compound 580],IC50,PC3,> 20 µM
same,IC50,A549 cells; [5],> 20 µM
CNC(=O)c1cc2cc(Nc3ncc(F)c(Nc4ccc(C(C)(C)C)cc4)n3)ccc2o1 [compound 642],IC50,PC3,≤ 20 µM
CN(C)C(=O)c1cc2cc(Nc3ncc(F)c(Nc4cccc(O)c4)n3)ccc2o1 [compound 643],IC50,PC3,> 20 µM
same,IC50,A549 cells; [7],> 20 µM
CCOC(=O)c1cc2cccc(Nc3ncc(F)c(Nc4cccc(O)c4)n3)c2[nH]1 [compound 648],IC50,A549 cells; [7],≤ 20 µM
same,IC50,HCT116; [8],≤ 20 µM
COC(=O)c1cc2cc(Nc3ncc(F)c(Nc4ccc(Cl)cc4)n3)ccc2o1 [compound 651],IC50,A549 cells; [7],> 20 µM
same,IC50,HCT116; [3],> 20 µM
COC(=O)c1cc2cc(Nc3ncc(F)c(Nc4ccc(Cl)c(Cl)c4)n3)ccc2o1 [compound 652],IC50,A549 cells; [7],> 20 µM
same,IC50,HCT116; [3],> 20 µM
COc1cc(Nc2nc(Nc3cccc4cc(C(=O)N(C)CCO)[nH]c34)ncc2F)cc(OC)c1 [compound 659],IC50,A549 cells; [7],≤ 20 µM
same,IC50,HCT116; [8],≤ 20 µM
same,IC50,H1299 cells; [9],≤ 20 µM
COc1cc(Nc2nc(Nc3cccc4cc(C(=O)NC(C)(C)CO)[nH]c34)ncc2F)cc(OC)c1 [compound 660],IC50,A549 cells; [7],≤ 20 µM
same,IC50,HCT116; [8],≤ 20 µM
same,IC50,H1299 cells; [9],≤ 20 µM
CCOC(=O)c1cc2cccc(Nc3ncc(F)c(NCCO)n3)c2[nH]1 [compound 667],IC50,A549 cells; [7],> 20 µM
same,IC50,HCT116; [8],> 20 µM
same,IC50,H1299 cells; [9],> 20 µM
COC(=O)c1cc2cc(Nc3ncc(F)c(Nc4ccc5c(c4)NC(=O)C(F)(F)O5)n3)ccc2o1 [compound 676],IC50,PC3,≤ 20 µM
same,IC50,A549 cells; [7],≤ 20 µM
COC(=O)c1cc2cc(Nc3ncc(F)c(Nc4ccc5c(c4)NC(=O)C(C)(C)O5)n3)ccc2o1 [compound 677],IC50,A549 cells; [7],≤ 20 µM
same,IC50,HCT116; [3],> 20 µM
same,IC50,HCT116; [8],> 20 µM
CNC(=O)COc1cccc(Nc2ncc(F)c(Nc3ccc(OC(F)(F)F)c(Cl)c3)n2)c1 [compound 699],IC50,PC3,> 20 µM
same,IC50,A549 cells; [10],≤ 20 µM
COc1ccc(Nc2ncc(F)c(Nc3ccc(OC)c(OC)c3)n2)cc1OC [compound 710],IC50,A549 cells; [10],≤ 20 µM
same,IC50,HCT116; [3],≤ 20 µM
Fc1cnc(Nc2cccc(Cl)c2)nc1Nc1cccc(Cl)c1 [compound 717],IC50,A549 cells; [10],≤ 20 µM
same,IC50,HCT116; [3],> 20 µM
CNC(=O)COc1cccc(Nc2ncc(F)c(Nc3cccc(O)c3)n2)c1 [compound 732],IC50,A549 cells; [10],≤ 20 µM
same,IC50,HCT116; [3],≤ 20 µM
Oc1ccc(Nc2ncc(F)c(Nc3ccc(O)c(F)c3)n2)cc1F [compound 742],IC50,PC3,≤ 20 µM
Oc1cccc(Nc2ncc(F)c(Nc3ccc(OCCN4CCOCC4)cc3)n2)c1 [compound 746],IC50,PC3,> 20 µM
same,IC50,A549 cells; [10],> 20 µM
CNC(=O)COc1cccc(Nc2ncc(F)c(Nc3cccc(OC)c3)n2)c1 [compound 755],IC50,A549 cells; [10],≤ 20 µM
same,IC50,HCT116; [3],≤ 20 µM
O=C(COc1cccc(Nc2ncc(F)c(Nc3cccc(O)c3)n2)c1)N1CCNCC1 [compound 761],IC50,PC3,> 20 µM
COc1cc(Nc2ncc(F)c(Nc3cc(OC)cc(OC)c3)n2)cc(OC)c1 [compound 839],IC50,A549 cells; [10],≤ 20 µM
same,IC50,HCT116; [3],≤ 20 µM
Cc1cc(C)cc(Nc2ncc(F)c(Nc3cc(C)cc(C)c3)n2)c1 [compound 841],IC50,A549 cells; [10],≤ 20 µM
same,IC50,HCT116; [3],≤ 20 µM
same,IC50,H1299 cells; [11],≤ 20 µM
COc1cc(Nc2nc(Nc3cc(C)c(C)c(C)c3)ncc2F)cc(OC)c1 [compound 845],IC50,A549 cells; [10],≤ 20 µM
same,IC50,HCT116; [3],≤ 20 µM
same,IC50,H1299 cells; [11],≤ 20 µM
COc1cc(Nc2nc(Nc3cc(Cl)cc(Cl)c3)ncc2F)cc(OC)c1 [compound 847],IC50,A549 cells; [10],≤ 20 µM
same,IC50,HCT116; [3],≤ 20 µM
COc1cc(Nc2nc(Nc3cc(C)cc(C(F)(F)F)c3)ncc2F)cc(OC)c1 [compound 848],IC50,A549 cells; [10],≤ 20 µM
same,IC50,HCT116; [3],≤ 20 µM
COCCOc1cccc(Nc2ncc(F)c(Nc3cc(O)c(O)c(OCCOC)c3)n2)c1 [compound 933],IC50,A549 cells; [12],≤ 20 µM
same,IC50,HCT116; [3],≤ 20 µM
same,IC50,"H1299 cells; H1299 (lung) cells, antiproliferation",≤ 20 µM
CNC(=O)COc1cccc(Nc2ncc(F)c(Nc3cc(C)c(O)c(Cl)c3)n2)c1 [compound 991],IC50,A549 cells; [12],≤ 20 µM
same,IC50,HCT116; [3],≤ 20 µM
